Data reported in publication PMC8103899, “Allyl Isothiocyanate: A TAS2R38 Receptor-Dependent Immune Modulator at the Interface Between Personalized Medicine and Nutrition” (Frontiers in Immunology, 2021).
Like-named read-outs stand apart in the source and are kept apart here.

Experiments:
[1] = tested on: TNF-α; test: TNF-α secretion of PBMC (ELISA), LPS stimulated or unstimulated; format: cell-based, human
Method: (§1) PBMC (1x10^6/mL) cultured in RPMI 1640 medium supplemented with 10% heat-inactivated fetal calf serum, 2 mM L-glutamine, 100 U/ml penicillin/streptomycin were stimulated with 0.5 ng/ml CD3/CD28 MAbs and exposed to the test compounds. After 24 h, supernatants were collected and stored at -80°C until analysis using the human MACSplex cytokine 12-kit (Miltenyi Biotec GmbH, Bergisch Gladbach, Germany) according to manufacturer’s protocol to quantify cytokine secretion. Supernatants were also used for photometric quantification by the human TNF-alpha or IL-1β ELISA Ready-Set-Go kit from eBIoscience (Frankfurt, Germany) according to the manufacturer’s instructions.
(§2) Figure 5 In bacterial LPS stimulated PBMC, AITC triggers MAPK activation and TNF-α inhibition in dependence of the TAS2R38 genotype. PBMC were exposed to AITC or 0.01% DMSO (SC) together with 100 pg/mL LPS. (A) Representative immunoblots are given. Densitometric analysis was done to quantify the immunoblots using Quantity One software (Bio-Rad, Munich, Germany) and normalized against β-actin, which was used as loading control. (B, C) Cytokine secretion at 3 and 24 h was analyzed using ELISA kits. (D) Time kinetic of TNF-α mRNA expression. Results are means + SD and given as fold of the solvent control. Results were calculated relative to the corresponding solvent control (SC, 0.01% DMSO). Significance of difference was determined compared to the respective SC by one-way ANOVA, *p < 0.05, **p < 0.01.

[2] = Human food intervention: AITC metabolite plasma levels after mustard intake (LC-ESI-MS/MS); format: in vivo; conditions: single intake of an AITC containing food product
Method: AITC metabolite quantification was carried out in blood plasma samples derived from an intervention study at the University Medical Center in Freiburg, Germany. Samples were from 4 healthy young adults (3 females, 1 male, aged between 30-40 years) having a normal BMI, and were non-smokers. Each subject consumed one time 10 g of a commercially available mustard preparation ([…] Munich, Germany) containing 24.74 ± 1.76 μmol/g fresh weight preformed AITC on an empty stomach with optional consumption of white bread. The intervention was preceded by a 48 h wash-out phase consisting of a glucosinolate/ITC-free diet. After 30 min and optionally 60 min, blood was collected by venipuncture in serum tubes and centrifuged at 2000g for 10 min, 4°C to obtain serum. Subsequently, TFA was added and the samples frozen at -80°C. The preparation of serum samples (300 μL serum and 100 μL TFA) was conducted as described by Kühn et al. ([37]). The frozen samples were thawed, vortexed (1 min) and centrifuged (4 °C, 10 min, 20.854 x g). The supernatant was transferred to SPE cartridges. Prior to transferring, SPE cartridges were conditioned with acetonitrile (ACN, 3 mL) and equilibrated with water (3 mL). After sample application, the cartridges were washed with formic acid (FA, 3 mL, 0.1% in water) and the metabolites were eluted with FA (3 mL, 0.1% in ACN:water, 90:10, v/v). […] The samples were re-dissolved in 100 μL FA (0.1% in ACN:water, 90:10, v/v). Sample aliquots of 5 μL were injected into the LC-ESI-MS/MS system. LC-ESI-MS/MS analysis was performed on an API4000 triple quadrupole mass spectrometer (AB Sciex Germany GmbH, Darmstadt, Germany) equipped with an Agilent 1200 LC system (Agilent Technologies Deutschland GmbH & Co. KG, Waldbronn, Germany). For data acquisition and processing the software Analyst 1.6.1 (AB Sciex Germany GmbH, Darmstadt, Germany) was used. […] AITC-CysGly; AITC-Cys; AITC-NAC) was conducted according to Platz et al. ([38]) with minor modifications. The separation was performed on a Kinetex C18 column (Phenomenex, 5 μm, 100 Å, 150 x 2.1 mm). The autosampler operated at 4°C and the set temperature for the oven was 20°C. A constant flow of 300 μL/min was used for the mobile phase which consisted of 0.1% FA in water (A) and 0.1% FA in ACN (B). […] In order to equilibrate the column, A was increased to 90% and held for 5 min. The relevant MS parameters include an entrance potential of -10 V, a desolvation gas temperature of 450°C, ion spray potential of -4.5 kV, gas 1 and gas 2 at 46 psi and a curtain gas pressure at 10 psi.

[3] = tested on: TRPA1; conditions: TRPA1 overexpressing cells, read-out: EC50 for the activation of TRPA1, cited from earlier work
[4] = tested on: IL-1β; test: IL-1β release of LPS stimulated PBMC (ELISA); format: cell-based, human; conditions: LPS activated PBMC
Method: as §1
as §2, with “(D) Time kinetic of TNF-α mRNA expression. Results are means + SD and given as fold of the solvent control.” left out

[5] = target: TAS2R38 receptor (Homo sapiens, UniProt P59533, A262V); test: Calcium flux assay in human PBMC (flow cytometry, Fluo-4 AM); conditions: AVI/AVI, 100 µM AITC
[6] = tested on: TAS2R38 receptor; test: as above; conditions: PAV/AVI
[7] = target: T1, TAS2R38 receptor (Homo sapiens, UniProt P59533, A49P/I296V); test: as above
T1 sequence (P59533 1-333 A49P/I296V): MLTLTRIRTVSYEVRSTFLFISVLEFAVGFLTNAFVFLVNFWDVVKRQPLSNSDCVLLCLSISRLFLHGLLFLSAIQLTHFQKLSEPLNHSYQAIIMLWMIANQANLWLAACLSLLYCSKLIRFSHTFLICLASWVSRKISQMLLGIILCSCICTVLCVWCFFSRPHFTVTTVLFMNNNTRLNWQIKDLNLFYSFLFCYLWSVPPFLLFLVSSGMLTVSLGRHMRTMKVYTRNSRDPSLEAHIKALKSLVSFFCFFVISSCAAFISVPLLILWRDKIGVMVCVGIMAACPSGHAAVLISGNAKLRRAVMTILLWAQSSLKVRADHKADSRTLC

TAS2R38 receptor (Homo sapiens, UniProt P59533, A262V), sequence (P59533 whole entry A262V): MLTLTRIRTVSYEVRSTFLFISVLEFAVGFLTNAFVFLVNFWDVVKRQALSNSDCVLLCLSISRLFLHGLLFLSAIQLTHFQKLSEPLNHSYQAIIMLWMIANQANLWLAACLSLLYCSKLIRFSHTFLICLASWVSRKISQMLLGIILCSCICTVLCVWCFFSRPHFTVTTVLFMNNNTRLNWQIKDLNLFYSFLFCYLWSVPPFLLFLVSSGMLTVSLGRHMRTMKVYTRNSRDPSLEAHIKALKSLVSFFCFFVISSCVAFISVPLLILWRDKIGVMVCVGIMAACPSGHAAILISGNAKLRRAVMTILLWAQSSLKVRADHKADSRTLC

C=CCN=C=S [AITC, allyl isothiocyanate]
TNF-α release ([1]; AITC exposure without inflammatory stimulus (data not shown)): no change | inhibition at 3 µM ([1]; Homo sapiens, 3 h LPS activated PBMC, 3 µM AITC, dependent on TAS2R38 receptor functionality, read-out: peak inhibition of TNF-α secretion): 54% | TNF-α secretion ([1]; LPS, prolonged incubation 24 h, PAV/PAV group, all tested concentrations): abolished the effect | AITC plasma levels [2]: around one | EC50 ([3]; ref 45): […] | EC50 ([3]; ref 46): […] | release of IL-1β [4]: suppressed in both AVI/AVI and PAV/PAV groups | calcium influx ([5]; lymphocytes): 24% | calcium flux (statistically significant) ([5]; monocytes): 20% | calcium influx ([6]; lymphocytes, 100 µM AITC): 21% | calcium flux (statistically significant) ([6]; monocytes, 10 µM AITC): 18% | calcium influx ([7]; PAV/PAV cells, 0.01 µM AITC (increase between 0.01 to 1 µM)): 28% | calcium influx ([7]; PAV/PAV cells, 1 µM AITC (increase between 0.01 to 1 µM)): 35% | calcium influx ([7]; PAV/PAV cells, 10 µM AITC (increase between 10-100 µM)): 45% | calcium influx ([7]; PAV/PAV cells, 100 µM AITC (increase between 10-100 µM)): 72% | calcium influx ([7]; lymphocytes, PAV/PAV, 1 µM AITC): 25% | calcium flux (statistically significant) ([7]; monocytes, PAV/PAV, 0.01 µM AITC): 22% | threshold concentration ([7]; monocytes, calcium flux): […]
